{"source": "paper PMC9452538", "about": "“The antimicrobial peptide LI14 combats multidrug-resistant bacterial infections” (Communications Biology, 2022)", "key": {"MRSA T144 [1]": {"tested_on": "MRSA T144", "test": "microbe, parasite or virus in culture", "format": "cell-based, Staphylococcus aureus", "conditions": "T144", "procedure,_shortened": "(§1)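 Broth microdilution MIC per CLSI 2021 in MHB. Exponential-phase bacteria diluted 1:1000 to 1.5 × 10^6 CFUs/mL and mixed with serial peptide concentrations.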"}, "S. aureus ATCC 29213 [2]": {"tested_on": "S. aureus ATCC 29213", "test": "microbe, parasite or virus in culture", "format": "cell-based, Staphylococcus aureus", "conditions": "ATCC 29213", "procedure,_shortened": "as §1"}, "E. faecium 5F-10": {"tested_on": "E. faecium 5F-10", "test": "microbe, parasite or virus in culture", "format": "cell-based, Enterococcus faecium", "conditions": "5F-10", "procedure,_shortened": "as §1"}, "E. coli ATCC 25922": {"tested_on": "E. coli ATCC 25922", "test": "microbe, parasite or virus in culture", "format": "cell-based, Escherichia coli", "conditions": "ATCC 25922", "procedure,_shortened": "as §1"}, "[3]": {"tested_on": "E. coli B2 (blaNDM-5 + mcr-1)", "test": "microbe, parasite or virus in culture", "format": "cell-based, Escherichia coli", "conditions": "B2 (blaNDM-5 + mcr-1)", "procedure,_shortened": "as §1"}, "MRSA T144 [4]": {"tested_on": "MRSA T144", "format": "cell-based, Staphylococcus aureus", "conditions": "MRSA T144", "description": "MRSA T144 and E. coli B2 in the exponential growth phase were incubated with LI14 peptide supplemented with 10 mM Na^+, K^+, Mg^2+, 10% Dulbecco’s modified Eagle medium (DMEM), and 10% fetal bovine serum (FBS) for 16–18 h. The stability of LI14 was evaluated by the change of its antibacterial activity under different conditions.\nLI14 were preincubated for 1 h at various temperatures (40–121 °C), pH (2–12), and proteases (pepsin, trypsin, and papain, final concentration 1 mg/mL). […] Following the incubation with the proteases, the leftover protease was precipitated with acetonitrile and removed by centrifugation at 3000 × g, followed by a MIC test.\nSupplementary Table 4 Thermal, pH, salts and protease stability of AMPs against\nMRSA T144 and E. coli B2 (MIC, μg/mL).\nTreatment MRSA T144 E. coli B2"}, "S. aureus ATCC 29213 [5]": {"tested_on": "S. aureus ATCC 29213", "test": "Resistance development study, serial passages", "format": "cell-based, Staphylococcus aureus", "conditions": "80 serial passages at sub-inhibitory concentration (0.5-fold MIC)", "description": "The ability of LI14 peptide to induce resistance was studied as previously described. Resistance to the therapeutically important drugs rifampicin and ciprofloxacin was measured using S. aureus ATCC 29213 and E. coli ATCC 25922 as test strains. The middle and final MICs were monitored after eighty such serial passages exposed to the tested medicines (0.5-fold MIC), and the fold change in MIC increase was recorded."}, "[6]": {"tested_on": "MRSA T144 and E. coli B2 established biofilms", "test": "Treatment of established biofilms", "format": "cell-based", "conditions": "128 μg/mL LI14, 2 h", "description": "In MHB medium, a mid-logarithmic growth-phase culture was diluted to 10^6 CFUs/ml. A 96-well flat bottom plate was filled with 100 μL of this bacterial suspension per well, which was cultured at 37 °C for 36 h to create mature biofilms. […] Plates were sonicated for 10 min after incubation to remove adhering bacteria, and the number of live bacteria was counted microbiologically."}, "E. coli B2 persisters": {"tested_on": "E. coli B2 persisters", "test": "Bactericidal activity against persisters", "format": "cell-based, Escherichia coli", "description": "Briefly, the bacteria suspensions after washing were exposed to 50-fold MIC concentrations of vancomycin and tigecycline, respectively, and co-incubation for 4 h to obtain persister cells. […] Subsequently, the primary CFUs/mL were calculated."}, "MRSA T144 or E. coli B2": {"tested_on": "MRSA T144 or E. coli B2", "test": "Rat skin wound infection model", "format": "in vivo, rats", "conditions": "MRSA T144 or E. coli B2 infected skin wound; LI14 5 or 10 μg topically; 8 days; n = 4", "description": "The rats (n = 4 biologically independent animals per group) were anesthetized and a 2 cm wound model was constructed on their back. Then, 100 μL of MRSA T144 or E. coli B2 cultures were dropped on the wounds (10^6 CFUs per mouse), respectively. At 1 h post-infection, 100 μL of LI14 peptide (5 or 10 μg), or the combination of LI14 peptide with ampicillin/rifampicin (5 + 5 μg) were gently inoculated over the scar with a pipette tip, respectively. Wound size was recorded for 8 days, and on the 8th day, the rats were euthanized, and wound tissue was removed aseptically to measure CFUs and for following hematoxylin and eosin (H&E) staining.\n(a-d) Mouse skin wound infection models by MRSA T144 (n = 4 biologically independent animals per group). a Photographs of wounds treated with LI14 (5 μg and 10 μg) or in combination with ampicillin (5 + 5 μg) for 0, 4 and 8 days (scale bar, 1 cm). (b) The wound size at 0th, 4th and 8th day after infection by MRSA T144. (c) The subeschar bacterial colonies at 8th day. (d) H.E. staining for the histological change of skin wound at 8th day (scale bar, […]\n(e-h) Mouse skin wound infection models by E. coli B2 (n = 4 biologically independent animals per group). (e) Photographs of wounds treated with LI14 (5 μg and 10 μg) or in combination with rifampicin for (5 + 5 μg) for 0, 4 and 8 days (scale bar, 1 cm). […]"}}, "note": "Where two headings read alike, the source gives them in different places. Peptide text beside a SMILES is read from it.", "data": [{"molecule": "CC[C@H](C)[C@H](NC(=O)[C@H](CCCNC(=N)N)NC(=O)[C@H](CS)NC(=O)[C@H](CC(C)C)NC(=O)[C@H](CCCCN)NC(=O)[C@H](CCCCN)NC(=O)[C@H](CC(C)C)NC(=O)[C@@H](NC(=O)[C@H](CCCNC(=N)N)NC(=O)[C@H](CS)NC(=O)[C@H](CC(C)C)NC(=O)[C@H](CCCCN)NC(=O)[C@H](CCCCN)NC(=O)[C@@H](N)CC(C)C)[C@@H](C)CC)C(N)=O", "note": "[LI14] (H-LKKLCRILKKLCRI-NH2)", "values": [{"measurement": "MIC", "setting": "MRSA T144 [1]", "value": 4, "unit": "µg/mL"}, {"measurement": "MIC", "setting": "S. aureus ATCC 29213 [2]", "value": 8, "unit": "µg/mL"}, {"measurement": "MIC", "setting": "E. faecium 5F-10", "value": 64, "unit": "µg/mL"}, {"measurement": "MIC", "setting": "E. coli ATCC 25922", "value": 8, "unit": "µg/mL"}, {"measurement": "MIC", "setting": "[3]", "value": 4, "unit": "µg/mL"}, {"measurement": "MIC", "setting": "MRSA T144 [4]; Control", "value": 4, "unit": "µg/mL"}, {"measurement": "MIC", "setting": "MRSA T144 [4]; peptide preincubated 1 h at 40℃", "value": 4, "unit": "µg/mL"}, {"measurement": "MIC", "setting": "MRSA T144 [4]; peptide preincubated 1 h at 60℃", "value": 4, "unit": "µg/mL"}, {"measurement": "MIC", "setting": "MRSA T144 [4]; peptide preincubated 1 h at 80℃", "value": 4, "unit": "µg/mL"}, {"measurement": "MIC", "setting": "MRSA T144 [4]; peptide preincubated 1 h at pH 8, readjusted to pH 7.2", "value": 4, "unit": "µg/mL"}, {"measurement": "MIC", "setting": "MRSA T144 [4]; peptide preincubated 1 h at pH 12, readjusted to pH 7.2", "value": 4, "unit": "µg/mL"}, {"measurement": "MIC", "setting": "MRSA T144 [4]; peptide preincubated 1 h with Pepsin 1 mg/mL", "value": 4, "unit": "µg/mL"}, {"measurement": "Increase in MIC after serial passages", "setting": "S. aureus ATCC 29213 [5]", "value": 8, "unit": "fold"}, {"measurement": "Eradication of established biofilms", "setting": "[6]", "value": "almost eradicated all established biofilms"}, {"measurement": "Removal rate of persisters", "setting": "E. coli B2 persisters; 128 μg/mL of LI14", "value": "more than 99%"}, {"measurement": "Clearance rate against persisters", "setting": "E. coli B2 persisters; within 2 h", "value": "above 99%"}, {"measurement": "Wound closure and number of colonies", "setting": "MRSA T144 or E. coli B2", "value": "distinctly improved wound closure and decreased the number of colonies"}]}]}
